Literature values as cited in US7517693B2, “Method and apparatus for determining a molecular descriptor of absorption for a candidate compound” (North Carolina State University, priority 2002, dated 2009).

Experiments:
[1] = Table IV study compounds
[2] = Table III calibration compounds, known literature descriptor; for logL^16 (solute gas-hexadecane partition coefficient): 25° C.

Row | Compound | logKo/w [1] | logL^16 (solute gas-hexadecane partition coefficient) [2] | α (effective solute H-bond acidity) [2] | β (effective solute H-bond basicity) [2] | π (effective solute dipolarity and polarizability) [2]
1 | CC12CCC(CC1)C(C)(C)O2 [1,8-cineole] | 2.74 | – | – | – | –
2 | C1CCNCC1 [Piperidine] | – | 3.304 | 0.10 | 0.69 | 0.46
3 | COC(=O)c1c(Cl)c(Cl)c(C(=O)OC)c(Cl)c1Cl [Dacthal] | 4.28 | – | – | – | –
4 | CCN [Ethylamine] | – | 1.677 | 0.16 | 0.61 | 0.35
5 | Oc1ccc(Cl)cc1 [4-Chlorophenol] | – | 4.775 | 0.67 | 0.20 | 1.08
6 | C1CCCCCCC1 [Cyclooctane] | – | 4.329 | 0.00 | 0.00 | 0.10
7 | CCCCN [n-Butylamine] | – | – | 0.16 | 0.61 | 0.35
8 | CCCCCCF [1-Fluorohexane] | – | 2.951 | 0.00 | 0.10 | 0.35
9 | Cc1c(C)c(C)c(C)c(C)c1C [Hexamethylbenzene] | – | 6.557 | 0.00 | 0.21 | 0.72
10 | COc1ccc(C(c2ccc(OC)cc2)C(Cl)(Cl)Cl)cc1 [Methoxychlor] | 5.08 | – | – | – | –
11 | c1ccccc1 [Benzene] | – | – | – | – | 0.52
12 | N#Cc1ccc(O)cc1 [4-Cyanophenol] | – | – | 0.79 | 0.29 | 1.63
13 | Cl[C@H]1[C@H](Cl)[C@@H](Cl)[C@@H](Cl)[C@H](Cl)[C@H]1Cl [Lindane] | 3.72 | – | – | – | –
14 | O=C(O)c1ccccc1O [salicylic acid] | 2.26 | – | – | – | –
15 | COC(=O)c1ccccc1C(=O)OC [Dimethyl phthalate] | – | – | 0.00 | 0.88 | 1.41
16 | COc1cc(Cl)c(OC)cc1Cl [Chloroneb] | 3.44 | – | – | – | –
17 | CN(C)C [Trimethylamine] | – | 1.620 | 0.00 | 0.67 | 0.20
18 | CCCCCCCCCCCCO [Compound 1-Dodecanol, 1-Dodecanol] | – | 6.640 | 0.37 | 0.48 | 0.42
19 | C1CCCCC1 [Cyclohexane] | – | 2.964 | 0.00 | 0.00 | 0.10
20 | CCCCCCCl [1-Chlorohexane] | – | 3.777 | 0.00 | 0.10 | 0.40

Row | Compound | logKo/w [1] | logL^16 (solute gas-hexadecane partition coefficient) [2] | α (effective solute H-bond acidity) [2] | β (effective solute H-bond basicity) [2] | π (effective solute dipolarity and polarizability) [2]
21 | Cc1cccc(C)c1 [m-xylene] | 3.20 | – | – | – | –
22 | CCCCNCCCC [Di-n-butylamine] | – | 4.349 | 0.08 | 0.69 | 0.30
23 | CCCCCCCCCCCO [Compound 1-Undecanol, 1-Undecanol] | – | 6.130 | 0.37 | 0.48 | 0.42
24 | c1ccc2cc3ccccc3cc2c1 [Anthracene] | 4.45 | – | – | – | –
25 | Cc1ccccc1O [o-Cresol] | – | 4.218 | 0.52 | 0.30 | 0.86
26 | c1ncncn1 [1,3,5-triazine] | −1.17 | – | – | – | –
27 | N#Cc1cccc(O)c1 [3-Cyanophenol] | – | 5.181 | 0.77 | 0.28 | 1.55
28 | Nonylphenol | 5.99 | – | – | – | –
29 | CCF [Fluoroethane] | – | 0.559 | 0.00 | 0.10 | 0.35
30 | CCCCCO [Compound 1-Pentanol, 1-Pentanol] | – | 3.106 | 0.37 | 0.48 | 0.42
31 | COc1ccccc1O [2-Methoxyphenol] | – | 4.449 | 0.22 | 0.52 | 0.91
32 | OCc1ccccc1 [Benzyl alcohol] | – | 4.221 | 0.33 | 0.56 | 0.87
33 | CCCCCCCCCCCCN1CCCCCC1=O [Laurocapram] | 6.28 | – | – | – | –
34 | Oc1ccc(F)cc1 [4-Fluorophenol] | – | 3.844 | 0.63 | 0.23 | 0.97
35 | ClC1=C(Cl)C2(Cl)C3C4OC4C(Cl)C3C1(Cl)C2(Cl)Cl (stereo not shown) [heptachlor epoxide] | 4.98 | – | – | – | –
36 | OC1CCCCC1 [Cyclohexanol] | – | – | 0.32 | 0.57 | 0.54
37 | CO [Methanol] | – | 0.970 | 0.43 | 0.47 | 0.44
38 | C1COCCO1 [1,4-dioxane] | −0.27 | – | – | – | –
39 | c1ccc2c(c1)sc1ccccc12 [Dibenzothiophen] | – | 7.575 | 0.00 | 0.18 | 1.31
40 | Sc1ccccc1 [Thiophenol] | – | – | 0.09 | 0.16 | 0.80

Row | Compound | logKo/w [1] | logL^16 (solute gas-hexadecane partition coefficient) [2] | α (effective solute H-bond acidity) [2] | β (effective solute H-bond basicity) [2] | π (effective solute dipolarity and polarizability) [2]
41 | COC(=O)c1ccccc1O [methyl salicylate] | 2.55 | – | – | – | –
42 | ClC(Cl)(Cl)Cl [Tetrachloromethane] | – | 2.823 | 0.00 | 0.00 | 0.38
43 | Cc1ccc([N+](=O)[O-])cc1 [4-Nitrotoluene] | – | 5.154 | 0.00 | 0.28 | 1.11
44 | CCNc1nc(Cl)nc(NC(C)C)n1 [Atrazine] | 2.61 | – | – | – | –
45 | Oc1cccc(O)c1 [Resorcinol] | 0.8 | – | – | – | –
46 | CCN(CC)CC [Triethylamine] | – | 3.040 | 0.00 | 0.79 | 0.15
47 | ClCCl [Dichloromethane] | – | 2.019 | 0.10 | 0.05 | 0.57
48 | ClC=CCl [1,2-Dichloroethene] | – | – | 0.11 | 0.05 | 0.61
49 | CCOP(=O)(OCC)OCC [Triethyl phosphate] | – | 4.750 | 0.00 | 1.06 | 1.00
50 | CNC(=O)Oc1cccc2ccccc12 [Carbaryl] | 2.36 | – | – | – | –
51 | Cc1cccc(O)c1 [m-cresol] | 1.95 | – | – | – | –
52 | CC(=O)CC(C)C [4-methyl-2-pentanone] | 1.31 | – | – | – | –
53 | CCCCCCCCCl [1-Chlorooctane] | – | 4.772 | 0.00 | 0.10 | 0.40
54 | c1ccc2c(c1)ccc1ccccc12 [Phenanthrene] | – | 7.632 | 0.00 | 0.26 | 1.29
55 | Oc1ccc(I)cc1 [Compound 4-Iodophenol, 4-Iodophenol] | – | 5.492 | 0.68 | 0.20 | 1.22
56 | Oc1ccccc1F [2-Fluorophenol] | – | 3.453 | 0.61 | 0.26 | 0.69
57 | CCC(=O)c1ccccc1 [Ethylphenylketone] | – | 4.971 | 0.00 | 0.51 | 0.95
58 | CCOCC [Diethylether] | – | – | 0.00 | 0.45 | 0.25
59 | OCC(F)(F)F [2,2,2-Trifluoroethanol] | – | 1.224 | 0.57 | 0.25 | 0.60
60 | Oc1ccc2ccccc2c1 [Compound 2-Naphthol, 2-Naphthol] | – | – | 0.61 | 0.40 | 1.08
